Laboratory results published in patent US8796466B2, “Hepatitis C virus inhibitors” (Bristol-Myers Squibb Company, priority 2009, dated 2014).

System: HCV 1b genotype
Test: HCV Replicon assay (HCV 1b genotype)
Assay type: cell-based, Hepatitis C virus
Settings: Hepatitis C virus; HCV 1b genotype replicon; Effective 50% inhibitory concentration; read-out: 1b EC50
Outline: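 HCV-neo replicon cells, wild-type plus lines carrying NS5A-region mutations, were exposed to compound; luciferase-reporter replicon variants were also used.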

Compound | EC50
O=C([C@H](O)c1ccccc1)N1CCC[C@H]1c1nc(-c2ccc(COCc3ccc(-c4cnc([C@@H]5CCCN5C(=O)[C@H](O)c5ccccc5)[nH]4)cc3)cc2)c[nH]1 [OL-15, (1R)-2-((2S)-2-(4-(4-(((4-(2-((2S)-1-((2R)-2-hydroxy-2-phenylacetyl)-2-pyrrolidinyl)-1H-imidazol-5-yl)benzyl)oxy)methyl)phenyl)-1H-imidazol-2-yl)-1-pyrrolidinyl)-2-oxo-1-phenylethanol] | 1.1 nM
COC(=O)N[C@H](C(=O)N1C[C@@H](C)C[C@H]1c1ncc(-c2ccc(C#Cc3ccc(-c4cnc([C@@H]5C[C@H](C)CN5C(=O)[C@@H](NC(=O)OC)C5CCOCC5)[nH]4)cc3)cc2)[nH]1)C1CCOCC1 [Example M12.3, dimethyl (1,2-ethynediylbis(4,1-phenylene-1H-imidazole-4,2-diyl((2S,4S)-4-methyl-2,1-pyrrolidinediyl)((1S)-2-oxo-1-(tetrahydro-2H-pyran-4-yl)-2,1-ethanediyl)))biscarbamate] | 0.014 nM
O=C([C@H](O)c1ccccc1)N1CCC[C@H]1c1nc(-c2ccc(Oc3cccc(-c4c[nH]c([C@@H]5CCCN5C(=O)[C@H](O)c5ccccc5)n4)c3)cc2)c[nH]1 [OL-5, (1R)-2-((2S)-2-(4-(3-(4-(2-((2S)-1-((2R)-2-hydroxy-2-phenylacetyl)-2-pyrrolidinyl)-1H-imidazol-4-yl)phenoxy)phenyl)-1H-imidazol-2-yl)-1-pyrrolidinyl)-2-oxo-1-phenylethanol] | 80 nM

Same assay, conditions: Hepatitis C virus; HCV 1b genotype replicon; class symbol; read-out: Range (EC50 values against HCV 1b)

Compound | EC50
COC(=O)N[C@H](C(=O)N1C[C@@H](C)C[C@H]1c1ncc(-c2ccc(C#Cc3ccc(-c4cnc([C@@H]5C[C@H](C)CN5C(=O)[C@@H](NC(=O)OC)C(C)C)[nH]4)cc3)cc2)[nH]1)C(C)C [Example M12.2, methyl ((1S)-1-(((2S,4S)-2-(4-(4-((4-(2-((2S,4S)-1-((2S)-2-((methoxycarbonyl)amino)-3-methylbutanoyl)-4-methyl-2-pyrrolidinyl)-1H-imidazol-4-yl)phenyl)ethynyl)phenyl)-1H-imidazol-2-yl)-4-methyl-1-pyrrolidinyl)carbonyl)-2-methylpropyl)carbamate] | 0.002 to 0.099 nM
COC(=O)N[C@@H](C(=O)N1CCC[C@H]1c1nc(-c2ccc(-c3ccc(-c4ccc(-c5c[nH]c([C@@H]6CCCN6C(=O)[C@H](NC(=O)OC)c6ccccc6)n5)cc4)cc3)cc2)c[nH]1)c1ccccc1 [Example D-1, dimethyl (1,1′:4′,1″-terphenyl-4,4″-diylbis(1H-imidazole-4,2-diyl(2S)-2,1-pyrrolidinediyl((1R)-2-oxo-1-phenyl-2,1-ethanediyl)))biscarbamate] | 0.002 to 0.099 nM
COC(=O)N[C@H](C(=O)N1[C@@H]2C[C@@H]2C[C@H]1c1nc(-c2ccc([C@@H]3C[C@H]3c3ccc(-c4c[nH]c([C@@H]5C[C@H]6C[C@H]6N5C(=O)[C@@H](NC(=O)OC)C5CCOCC5)n4)cc3)cc2)c[nH]1)C1CCOCC1 [Example M9.6, dimethyl ((1R,2R)-1,2-cyclopropanediylbis(4,1-phenylene-1H-imidazole-4,2-diyl(1R,3S,5R)-2-azabicyclo[3.1.0]hexane-3,2-diyl((1S)-2-oxo-1-(tetrahydro-2H-pyran-4-yl)-2,1-ethanediyl)))biscarbamate] | 0.002 to 0.099 nM
COC(=O)N[C@@H](C(=O)N1CCC[C@H]1c1nc(-c2ccc(Oc3cccc(-c4c[nH]c([C@@H]5CCCN5C(=O)[C@H](NC(=O)OC)c5ccccc5)n4)c3)cc2)c[nH]1)c1ccccc1 [OL-6, methyl ((1R)-2-((2S)-2-(4-(3-(4-(2-((2S)-1-((2R)-2-((methoxycarbonyl)amino)-2-phenylacetyl)-2-pyrrolidinyl)-1H-imidazol-4-yl)phenoxy)phenyl)-1H-imidazol-2-yl)-1-pyrrolidinyl)-2-oxo-1-phenylethyl)carbamate] | 0.002 to 0.099 nM
COC(=O)N[C@@H](C(=O)N1CCC[C@H]1c1nc(-c2ccc(CCc3ccc(-c4c[nH]c([C@@H]5CCCN5C(=O)[C@H](NC(=O)OC)c5ccccc5)n4)cc3)cc2)c[nH]1)c1ccccc1 [OL-11, dimethyl (1,2-ethanediylbis(4,1-phenylene-1H-imidazole-4,2-diyl(2S)-2,1-pyrrolidinediyl((1R)-2-oxo-1-phenyl-2,1-ethanediyl)))biscarbamate] | 0.002 to 0.099 nM
O=C([C@H](O)c1ccccc1)N1CCC[C@H]1c1nc(-c2ccc(COCc3ccc(-c4cnc([C@@H]5CCCN5C(=O)[C@H](O)c5ccccc5)[nH]4)cc3)cc2)c[nH]1 [OL-15, (1R)-2-((2S)-2-(4-(4-(((4-(2-((2S)-1-((2R)-2-hydroxy-2-phenylacetyl)-2-pyrrolidinyl)-1H-imidazol-5-yl)benzyl)oxy)methyl)phenyl)-1H-imidazol-2-yl)-1-pyrrolidinyl)-2-oxo-1-phenylethanol] | 1 to 9.9 nM
COC(=O)N[C@H](C(=O)N1[C@@H]2C[C@@H]2C[C@H]1c1ncc(-c2cccc(C#Cc3cccc(-c4cnc([C@@H]5C[C@H]6C[C@H]6N5C(=O)[C@@H](NC(=O)OC)C5CCOCC5)[nH]4)c3)c2)[nH]1)C1CCOCC1 [Example J4, dimethyl (1,2-ethynediylbis(3,1-phenylene-1H-imidazole-4,2-diyl(1R,3S,5R)-2-azabicyclo[3.1.0]hexane-3,2-diyl((1S)-2-oxo-1-(tetrahydro-2H-pyran-4-yl)-2,1-ethanediyl)))biscarbamate] | 0.002 to 0.099 nM
COC(=O)N[C@H](C(=O)N1C[C@@H](C)C[C@H]1c1ncc(-c2ccc(C#Cc3ccc(-c4cnc([C@@H]5C[C@H](C)CN5C(=O)[C@@H](NC(=O)OC)C5CCOCC5)[nH]4)cc3)cc2)[nH]1)C1CCOCC1 [Example M12.3, dimethyl (1,2-ethynediylbis(4,1-phenylene-1H-imidazole-4,2-diyl((2S,4S)-4-methyl-2,1-pyrrolidinediyl)((1S)-2-oxo-1-(tetrahydro-2H-pyran-4-yl)-2,1-ethanediyl)))biscarbamate] | 0.002 to 0.099 nM
COC(=O)N[C@H](C(=O)N1[C@@H]2C[C@@H]2C[C@H]1c1ncc(-c2ccc([C@H]3C[C@@H]3c3ccc(-c4cnc([C@@H]5C[C@H]6C[C@H]6N5C(=O)[C@@H](NC(=O)OC)C5CCOCC5)[nH]4)cc3)cc2)[nH]1)C1CCOCC1 [Example M9.4, dimethyl ((1S,2S)-1,2-cyclopropanediylbis(4,1-phenylene-1H-imidazole-4,2-diyl(1R,3S,5R)-2-azabicyclo[3.1.0]hexane-3,2-diyl((1S)-2-oxo-1-(tetrahydro-2H-pyran-4-yl)-2,1-ethanediyl)))biscarbamate] | 0.002 to 0.099 nM
CN(C)[C@@H](C(=O)N1CCC[C@H]1c1ncc(-c2ccc(COCc3ccc(-c4cnc([C@@H]5CCCN5C(=O)[C@@H](c5ccccc5)N(C)C)[nH]4)cc3)cc2)[nH]1)c1ccccc1 [OL-14, (1R)-2-((2S)-2-(4-(4-(((4-(2-((2S)-1-((2R)-2-(dimethylamino)-2-phenylacetyl)-2-pyrrolidinyl)-1H-imidazol-5-yl)benzyl)oxy)methyl)phenyl)-1H-imidazol-2-yl)-1-pyrrolidinyl)-N,N-dimethyl-2-oxo-1-phenylethanamine] | 0.1 to 0.99 nM
COC(=O)N[C@H](C(=O)N1C[C@@H](C)C[C@H]1c1nc(-c2ccc(C#Cc3ccc(-c4[nH]c([C@@H]5C[C@H](C)CN5C(=O)[C@@H](NC(=O)OC)C(C)C)nc4Cl)cc3)cc2)c[nH]1)C(C)C [Example M12.4, methyl ((1S)-1-(((2S,4S)-2-(4-(4-((4-(4-chloro-2-((2S,4S)-1-((2S)-2-((methoxycarbonyl)amino)-3-methylbutanoyl)-4-methyl-2-pyrrolidinyl)-1H-imidazol-5-yl)phenyl)ethynyl)phenyl)-1H-imidazol-2-yl)-4-methyl-1-pyrrolidinyl)carbonyl)-2-methylpropyl)carbamate] | 0.002 to 0.099 nM
O=C([C@H](O)c1ccccc1)N1CCC[C@H]1c1nc(-c2ccc(Oc3cccc(-c4c[nH]c([C@@H]5CCCN5C(=O)[C@H](O)c5ccccc5)n4)c3)cc2)c[nH]1 [OL-5, (1R)-2-((2S)-2-(4-(3-(4-(2-((2S)-1-((2R)-2-hydroxy-2-phenylacetyl)-2-pyrrolidinyl)-1H-imidazol-4-yl)phenoxy)phenyl)-1H-imidazol-2-yl)-1-pyrrolidinyl)-2-oxo-1-phenylethanol] | 10 to 350 nM
COC(=O)N[C@H](C(=O)N1[C@@H]2C[C@@H]2C[C@H]1c1nc(Cl)c(-c2ccc(C#Cc3ccc(-c4[nH]c([C@@H]5C[C@H]6C[C@H]6N5C(=O)[C@@H](NC(=O)OC)C5CCOCC5)nc4Cl)cc3)cc2)[nH]1)C1CCOCC1 [Example M9.2, dimethyl (1,2-ethynediylbis(4,1-phenylene(4-chloro-1H-imidazole-5,2-diyl)(1R,3S,5R)-2-azabicyclo[3.1.0]hexane-3,2-diyl((1S)-2-oxo-1-(tetrahydro-2H-pyran-4-yl)-2,1-ethanediyl)))biscarbamate] | 0.002 to 0.099 nM
CC[C@H](NC(=O)OC)C(=O)N1[C@@H]2C[C@@H]2C[C@H]1c1nc(-c2ccc(C#Cc3ccc(-c4c[nH]c([C@@H]5C[C@H]6C[C@H]6N5C(=O)[C@H](CC)NC(=O)OC)n4)cc3)cc2)c[nH]1 [Example M4, dimethyl (1,2-ethynediylbis(4,1-phenylene-1H-imidazole-4,2-diyl(1R,3S,5R)-2-azabicyclo[3.1.0]hexane-3,2-diyl((2S)-1-oxo-1,2-butanediyl)))biscarbamate] | 0.002 to 0.099 nM
COC(=O)N[C@H](C(=O)N1CCC[C@H]1c1ncc(-c2ccc(C#Cc3ccc4c(ccc5nc([C@@H]6CCCN6C(=O)[C@@H](NC(=O)OC)C(C)C)[nH]c54)c3)cc2)[nH]1)C(C)C [Example D-6, methyl ((1S)-1-(((2S)-2-(4-(4-((2-((2S)-1-((2S)-2-((methoxycarbonyl)amino)-3-methylbutanoyl)-2-pyrrolidinyl)-1H-naphtho[1,2-d]imidazol-7-yl)ethynyl)phenyl)-1H-imidazol-2-yl)-1-pyrrolidinyl)carbonyl)-2-methylpropyl)carbamate] | 0.002 to 0.099 nM
CN(C)[C@@H](C(=O)N1CCC[C@H]1c1ncc(-c2ccc(COCc3cccc(-c4cnc([C@@H]5CCCN5C(=O)[C@@H](c5ccccc5)N(C)C)[nH]4)c3)cc2)[nH]1)c1ccccc1 [OL-20, (1R)-2-((2S)-2-(4-(3-(((4-(2-((2S)-1-((2R)-2-(dimethylamino)-2-phenylacetyl)-2-pyrrolidinyl)-1H-imidazol-4-yl)benzyl)oxy)methyl)phenyl)-1H-imidazol-2-yl)-1-pyrrolidinyl)-N,N-dimethyl-2-oxo-1-phenylethanamine] | 0.1 to 0.99 nM
CN(C)[C@@H](C(=O)N1CCC[C@H]1c1ncc(-c2ccc(COc3ccc(-c4cnc([C@@H]5CCCN5C(=O)[C@@H](c5ccccc5)N(C)C)[nH]4)cc3)cc2)[nH]1)c1ccccc1 [OL-7, (1R)-2-((2S)-2-(4-(4-((4-(2-((2S)-1-((2R)-2-(dimethylamino)-2-phenylacetyl)-2-pyrrolidinyl)-1H-imidazol-4-yl)benzyl)oxy)phenyl)-1H-imidazol-2-yl)-1-pyrrolidinyl)-N,N-dimethyl-2-oxo-1-phenylethanamine] | 0.002 to 0.099 nM
CN(C)[C@@H](C(=O)N1CCC[C@H]1c1nc(-c2ccc(-c3ccc(-c4ccc(-c5c[nH]c([C@@H]6CCCN6C(=O)[C@@H](c6ccccc6)N(C)C)n5)cc4)cc3)cc2)c[nH]1)c1ccccc1 [Example D-2, (1R)-2-((2S)-2-(4-(4″-(2-((2S)-1-((2R)-2-(dimethylamino)-2-phenylacetyl)-2-pyrrolidinyl)-1H-imidazol-5-yl)-1,1′:4′,1″-terphenyl-4-yl)-1H-imidazol-2-yl)-1-pyrrolidinyl)-N,N-dimethyl-2-oxo-1-phenylethanamine] | 0.1 to 0.99 nM
